Literature values, collected in patent US20180271826A1, “DRY POWDERS OF CANNABINOIDS AND METHODS FOR PREPARING DRY POWDERS” (COLORADO CAN LLC, priority 2017, published 2018).

Columns and labels:
[1] = burning of cannabis cigarettes (Elzinga 2015)
[2] = cannabis resin, 4 years, 4° C. in the dark (Trofin 2012)
[3] = transdermal patch (Stinchcomb 2004)
[4] = plant material, room temperature (20° C.) near a source of light, a little under two years (Fairbarn 1976)
[5] = oral ingestion (Ohlsson 1980)

Structure (SMILES)	theoretically present amount recovered in total smoke and remaining ash [1] [%]	original content degraded [2] [%]	peak THC concentration [3] [ng/mL]	time of peak THC concentration [3] [h]	original THC content remaining [4] [%]	time of peak THC concentrations after dosing [5] [h]
C=C(C)[C@@H]1CCC(C)=C[C@H]1c1c(O)cc(CCCCC)cc1O [CBD, cannabidiol]	38.4	55.75	–	–	–	–
CCCCCc1cc(O)c2c(c1)OC(C)(C)[C@@H]1CCC(C)=C[C@@H]21 [THC, Δ9-tetrahydrocannabinol]	36.9	95.77	4.4	1.4	37	1 to 5
